Results from BindingDB's records for doi:10.1016/S0960-894X(00)80068-2 (1994).

How the values were obtained:
[1] = target: Sigma intracellular receptor 2 (Cavia porcellus); assay: Binding affinity for Sigma opioid receptor type 2 in guinea pig brain homogenate with 4 nM [3H]-(+)-DTG
[2] = Binding affinity for Sigma opioid receptor type 1 in guinea pig brain homogenate with 0.5 nM [3H](+)-PENT

Ki [1] [nM] | Ki [2] [nM] | Structure (SMILES)
43 | 17 | O=C1NC(c2ccccc2)(c2ccccc2)C(=O)N1CCN1CCC(c2ccccc2)CC1 [5,5-Diphenyl-3-[2-(4-phenyl-piperidin-1-yl)-ethyl]-imidazolidine-2,4-dione]
25 | 22 | O=C1NC(c2ccccc2)(c2ccccc2)C(=O)N1CCCN1CCC(c2ccccc2)CC1 [5,5-Diphenyl-3-[3-(4-phenyl-piperidin-1-yl)-propyl]-imidazolidine-2,4-dione]
49 | 328 | O=C1NC(c2ccccc2)(c2ccccc2)C(=O)N1CCCCN1CCN(c2ccccc2)CC1 [5,5-Diphenyl-3-[4-(4-phenyl-piperazin-1-yl)-butyl]-imidazolidine-2,4-dione]
19 | 19 | O=C1NC(c2ccccc2)(c2ccccc2)C(=O)N1CCCCCN1CCN(c2ccccc2)CC1 [5,5-Diphenyl-3-[5-(4-phenyl-piperazin-1-yl)-pentyl]-imidazolidine-2,4-dione]
